Measured values taken from article PMC2762729 (Biochemistry, 2009).
Entries after “also recorded” stand apart in the source; their conditions may differ. Read-outs that look alike come from different tables or passages of the source.

What was measured:
[1] = system: saporin-L1; format: biochemical, Saponaria officinalis
[2] = system: 35-mer synthetic SRL mimic with GAGA tetraloop; details: cited from earlier work
[3] = target: T1, saporin-L1 (Saponaria officinalis, UniProt Q2QEH4); test: Competitive inhibition of A-10 RNA
T1 sequence (Q2QEH4 22-280 limits assumed): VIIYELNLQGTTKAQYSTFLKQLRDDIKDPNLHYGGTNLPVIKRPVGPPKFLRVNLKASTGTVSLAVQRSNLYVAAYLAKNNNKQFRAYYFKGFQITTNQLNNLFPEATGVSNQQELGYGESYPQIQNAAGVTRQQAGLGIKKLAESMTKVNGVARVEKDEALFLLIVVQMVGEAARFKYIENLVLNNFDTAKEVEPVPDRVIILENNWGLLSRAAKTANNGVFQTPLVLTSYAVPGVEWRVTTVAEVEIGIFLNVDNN

[4] = target: T1, saporin-L1; format: biochemical; details: read-out: EC50, rescue of translation; n = 3
[5] = system: saporin-L1; format: biochemical, Saponaria officinalis; remark: listed apart in the source
[6] = target: T1, saporin-L1; test: Competitive inhibition of A-10 RNA; remark: listed apart in the source
[7] = system: saporin-L1; details: pH 7.8; cited from earlier work

Nc1ncnc2c(CN3C[C@H](CO)[C@@H](O)C3)c[nH]c12 [9-DA, 9-deazaadenine-9-methylene-N-hydroxypyrrolidine]
inhibition of saporin-L1 (in words) [1]: not an inhibitor; also recorded: poor inhibitor
Ki ([1]; read-out: Ki (no slow onset observed)): > 500000 nM

gelonin
activity (in words) [2]: no detectable activity

CO[C@@H]1[C@H](OP(=O)(O)OCCCO)[C@@H](COP(=O)(O)O[C@H]2CN(Cc3c[nH]c4c(N)ncnc34)C[C@@H]2COP(=O)(O)OCCCO)O[C@H]1n1cnc2c(=O)[nH]c(N)nc21 [s3(9-DA)Gs3 2′-OMe]
Ki [3]: 6.4 ± 1.7 nM
EC50 [4]: 36 nM

5′-CGCGAGAGCG-3′ [A-10 RNA]
Km, fold lower with saporin-L1 than with saporin-S6 [5]: 4 fold
Km, fold tighter than poly(A) RNA [5]: 4.5 fold
kcat/Km, fold increased catalytic efficiency over poly(A) RNA [5]: 45 fold
kcat/Km, fold more efficient with saporin-L1 than with saporin-S6 [5]: 4,800 fold
Km ([5]; pH 7.7): 95 ± 7 µM
kcat ([5]; pH 7.7): 7.33 ± 0.267 s⁻¹

trichosanthin
activity (in words) [2]: no detectable activity

Nc1ncnc2c(CN3C[C@H](CO)[C@@H](O)C3)c[nH]c12 [9-DA, 9-deazaadenine-9-methylene-N-hydroxypyrrolidine (DADMeA)]
Ki [6]: > 500000 nM

poly(A)
Km [7]: 639 ± 32 µM
kcat [7]: 1.02 ± 0.017 s⁻¹
